Assay results taken from patent US20230173018A1, “CASPOFUNGIN DERIVATIVES AND ASSAYS FOR EVALUATING ANTIFUNGAL TREATMENT EFFICACY” (priority 2020, published 2023).
≈ marks a conversion by molar mass, not a printed value.

What was measured:
Format in all cases: cell-based
C. glabrata ATCC 66032 = assay: MIC, broth double dilution; details: strain no. 40, C. glabrata ATCC 66032
Text: (§1) The antifungal activities of compounds 1a, 1 and 2 (collectively: caspofungin derivatives) were compared to that of caspofungin and CSF-BOD using a panel of 49 C. albicans and C. glabrata strains (Tables 1 and 2). The panel included ATCC strains and clinical isolates as well a collection of caspofungin-responsive strains and their corresponding isogenic caspofungin-resistant derivatives, constructed by introducing point mutations within and near the defined hotspots in the FKS1 and/or FKS2 genes of the GS complex. Minimal inhibitory concentration (MIC) values for all strains were determined using the broth double dilution method and are summarized in FIG. 2 and Table 2. […] The clinical breakpoints (threshold) for caspofungin-resistance in C. albicans and C. glabrata are 1 μg/mL and 0.5 μg/mL, respectively.

C. glabrata T-192 (1775) = assay: MIC, broth double dilution; details: strain no. 44, T-192 (1775), clinical isolate
Text: as §1

C. glabrata BG2 = assay: MIC, broth double dilution; details: strain no. 34, C. glabrata BG2
Text: as §1

[1] = tested on: C. glabrata T-983 (11-079); assay: MIC, broth double dilution; details: strain no. 47, T-983 (11-079), clinical isolate
Text: as §1

[2] = tested on: C. glabrata T-191 (11-331); assay: MIC, broth double dilution; details: strain no. 43, T-191 (11-331), clinical isolate
Text: as §1

C. glabrata ATCC 15126 = assay: MIC, broth double dilution; details: strain no. 41, C. glabrata ATCC 15126
Text: as §1

[3] = tested on: C. albicans T-2074 (DP-122); assay: microbe, parasite or virus in culture; details: strain no. 12, T-2074 (DP-122), clinical isolate, FKS1 HS1-P649H mutation
Text: as §1

C. glabrata TGL00264 = assay: microbe, parasite or virus in culture; details: strain no. 29, TGL00264, parental CST78, FKS mutant
Text: as §1

C. glabrata TGL00275 = assay: microbe, parasite or virus in culture; details: strain no. 32, TGL00275, FKS mutant
Text: as §1

C. glabrata CST78 = assay: microbe, parasite or virus in culture; details: strain no. 26, C. glabrata CST78
Text: as §1

C. glabrata TGL00253 = assay: microbe, parasite or virus in culture; details: strain no. 20, TGL00253, parental CST109, FKS2 mutant
Text: as §1

C. glabrata TGL00294 = assay: microbe, parasite or virus in culture; details: strain no. 38, TGL00294, parental BG2, FKS mutant
Text: as §1

[4] = tested on: C. albicans DPL1016 (DP-A15-10); assay: microbe, parasite or virus in culture; details: strain no. 3, DPL1016 (DP-A15-10), parental SC5314, FKS1 mutant HS1-S645P
Text: as §1

C. glabrata TGL00293 = assay: microbe, parasite or virus in culture; details: strain no. 37, TGL00293, parental BG2, FKS mutant
Text: as §1

C. glabrata TGL00277 = assay: microbe, parasite or virus in culture; details: strain no. 33, TGL00277, parental EF1620, FKS mutant
Text: as §1

C. glabrata TGL00256 = assay: microbe, parasite or virus in culture; details: strain no. 24, TGL00256, parental CST34, FKS mutant
Text: as §1

[5] = tested on: C. albicans T-2069 (DP-85); assay: microbe, parasite or virus in culture; details: strain no. 14, T-2069 (DP-85), clinical isolate, FKS1 HS1-S645F mutation
Text: as §1

C. glabrata TGL00107 = assay: microbe, parasite or virus in culture; details: strain no. 23, TGL00107, parental CST34, FKS mutant
Text: as §1

C. glabrata TGL00265 = assay: microbe, parasite or virus in culture; details: strain no. 30, TGL00265, parental CST78, FKS mutant
Text: as §1

[6] = tested on: C. glabrata T-985 (11-076); assay: microbe, parasite or virus in culture; details: strain no. 49, T-985 (11-076), clinical isolate
Text: as §1

C. glabrata TGL00091 = assay: microbe, parasite or virus in culture; details: strain no. 35, TGL00091, FKS mutant
Text: as §1

C. glabrata DPL1086 = assay: microbe, parasite or virus in culture; details: strain no. 17, DPL1086, parental ATCC 90030, FKS1 mutant HS1-S629P
Text: as §1

C. glabrata TGL00056 = assay: microbe, parasite or virus in culture; details: strain no. 22, TGL00056, parental CST34, FKS mutant
Text: as §1

[7] = tested on: C. albicans T-2077 (DP-205); assay: microbe, parasite or virus in culture; details: strain no. 15, T-2077 (DP-205), clinical isolate, FKS1 HS1-S645P mutation
Text: as §1

C. glabrata TGL00291 = assay: microbe, parasite or virus in culture; details: strain no. 36, TGL00291, parental BG2, FKS mutant
Text: as §1

C. glabrata TGL00263 = assay: microbe, parasite or virus in culture; details: strain no. 28, TGL00263, parental CST78, FKS mutant
Text: as §1

[8] = tested on: C. albicans DPL1015 (DP-A15); assay: microbe, parasite or virus in culture; details: strain no. 2, DPL1015 (DP-A15), parental SC5314, FKS1 mutant HS1-S645S/P
Text: as §1

C. glabrata TGL00065 = assay: microbe, parasite or virus in culture; details: strain no. 27, TGL00065, FKS mutant
Text: as §1

C. glabrata TGL00258 = assay: microbe, parasite or virus in culture; details: strain no. 25, TGL00258, parental CST34, FKS mutant
Text: as §1

[9] = tested on: C. albicans T-2068 (DP-C42); assay: microbe, parasite or virus in culture; details: strain no. 4, T-2068 (DP-C42), parental SC5314, FKS1 HS1-F641S mutation
Text: as §1

C. albicans CG72 = assay: microbe, parasite or virus in culture; details: strain no. 7, CG72, parental CAM, pKE1:GFP-YPT72
Text: as §1

[10] = tested on: C. albicans T-2076 (DP-194); assay: microbe, parasite or virus in culture; details: strain no. 13, T-2076 (DP-194), clinical isolate, FKS1 HS1-S645F, HS2-R1361R/H mutation
Text: as §1

C. albicans SN95 = assay: microbe, parasite or virus in culture; details: strain no. 8, SN95, parental RM1000
Text: as §1

C. glabrata TGL00054 = assay: microbe, parasite or virus in culture; details: strain no. 19, TGL00054, parental CST109, FKS2 mutant
Text: as §1

C#CCOc1ccc([C@H](O)[C@@H](O)[C@@H]2NC(=O)[C@@H]3C[C@@H](O)CN3C(=O)[C@H]([C@@H](C)O)NC(=O)[C@@H](NC(=O)CCCCCCCC[C@@H](C)C[C@@H](C)CC)C[C@@H](O)[C@@H](NCCN)NC(=O)[C@@H]3[C@@H](O)CCN3C(=O)[C@H]([C@H](O)CCN)NC2=O)cc1 [Compound 1a]
MIC (C. glabrata ATCC 66032): 1 µg/mL (≈ 0.884 µM) | MIC (C. glabrata T-192 (1775)): 0.5 µg/mL (≈ 0.442 µM) | MIC (C. glabrata BG2): 0.5 µg/mL (≈ 0.442 µM) | MIC [1]: 0.25 µg/mL (≈ 0.221 µM) | MIC [2]: 0.25 µg/mL (≈ 0.221 µM) | MIC (C. glabrata ATCC 15126): 1 µg/mL (≈ 0.884 µM) | MIC [3]: 16 µg/mL (≈ 14.1 µM) | MIC (C. glabrata TGL00264): >64 µg/mL | MIC (C. glabrata TGL00275): 16 µg/mL (≈ 14.1 µM) | MIC (C. glabrata CST78): 0.5 µg/mL (≈ 0.442 µM) | MIC (C. glabrata TGL00253): >64 µg/mL | MIC (C. glabrata TGL00294): >64 µg/mL | MIC [4]: 16 µg/mL (≈ 14.1 µM) | MIC (C. glabrata TGL00293): >64 µg/mL | MIC (C. glabrata TGL00277): >64 µg/mL | MIC (C. glabrata TGL00256): 2 µg/mL (≈ 1.77 µM) | MIC [5]: 32 µg/mL (≈ 28.3 µM) | MIC (C. glabrata TGL00107): >64 µg/mL | MIC (C. glabrata TGL00265): >64 µg/mL | MIC [6]: 0.5 µg/mL (≈ 0.442 µM) | MIC (C. glabrata TGL00091): >64 µg/mL | MIC (C. glabrata DPL1086): 4 µg/mL (≈ 3.54 µM) | MIC (C. glabrata TGL00056): >64 µg/mL | MIC [7]: >64 µg/mL | MIC (C. glabrata TGL00291): >64 µg/mL | MIC (C. glabrata TGL00263): >64 µg/mL | MIC [8]: 8 µg/mL (≈ 7.07 µM) | MIC (C. glabrata TGL00065): >64 µg/mL | MIC (C. glabrata TGL00258): >64 µg/mL | MIC [9]: 16 µg/mL (≈ 14.1 µM) | MIC (C. albicans CG72): 0.063 µg/mL (≈ 0.0557 µM) | MIC [10]: 32 µg/mL (≈ 28.3 µM) | MIC (C. albicans SN95): 0.125 µg/mL (≈ 0.11 µM) | MIC (C. glabrata TGL00054): >64 µg/mL
